For assay [1], the system named is human prostate PC3-mm2 tumor cell line. The assay is described as follows: In vitro cell culture growth assay (MTS), PC3-mm2. The class given is cell-based. As to conditions: Homo sapiens, PC3MM2, 72 h, MTS cell growth assay, three days after drug treatment, read-out: IC50 PC3-mm2.
Another assay has as its target Human mTOR (FLAG-TOR) (Homo sapiens, UniProt P42345). In words: mTOR kinase assay (DELFIA format, purified enzyme). As to conditions: read-out: IC50 mTOR. The class given is biochemical.
In another assay the target is PI3K-α (Homo sapiens, UniProt P42336). The assay is described as follows: PI3K-alpha fluorescence polarization assay. As to conditions: read-out: IC50 PI3Kα. A general note: In fluorescence polarisation assays a small probe gives low polarisation when free and higher when bound to something large.
Assay [2] has as its system human breast MDA-MB-361 tumor cell line. The assay is described as follows: In vitro cell culture growth assay (MTS), MDA-MB-361. Conditions: Homo sapiens, MTS cell growth assay, three days after drug treatment, read-out: IC50 MDA-MB-361. The class given is cell-based. In general terms: Formazan colour is commonly taken as a measure of viable cells.
The target of another assay is PI3K-γ (Homo sapiens, UniProt P48736). In words: PI3K-gamma fluorescence polarization assay. Conditions: read-out: IC50 PI3Kγ.
Where [3] appears, read: MDA-MB-361, 72 h, MDA-MB-361 cells.

Several values for one entry are separate records, joined by “and”; a condition that tells them apart may be missing. Equal values may be shown once. Read-outs that look alike come from different tables or passages of the source. Some results are limits rather than exact numbers.

One may read the IC50 as the midpoint of a concentration-inhibition curve.

Chain of Human mTOR (FLAG-TOR) (P42345 1360-2549 limits assumed): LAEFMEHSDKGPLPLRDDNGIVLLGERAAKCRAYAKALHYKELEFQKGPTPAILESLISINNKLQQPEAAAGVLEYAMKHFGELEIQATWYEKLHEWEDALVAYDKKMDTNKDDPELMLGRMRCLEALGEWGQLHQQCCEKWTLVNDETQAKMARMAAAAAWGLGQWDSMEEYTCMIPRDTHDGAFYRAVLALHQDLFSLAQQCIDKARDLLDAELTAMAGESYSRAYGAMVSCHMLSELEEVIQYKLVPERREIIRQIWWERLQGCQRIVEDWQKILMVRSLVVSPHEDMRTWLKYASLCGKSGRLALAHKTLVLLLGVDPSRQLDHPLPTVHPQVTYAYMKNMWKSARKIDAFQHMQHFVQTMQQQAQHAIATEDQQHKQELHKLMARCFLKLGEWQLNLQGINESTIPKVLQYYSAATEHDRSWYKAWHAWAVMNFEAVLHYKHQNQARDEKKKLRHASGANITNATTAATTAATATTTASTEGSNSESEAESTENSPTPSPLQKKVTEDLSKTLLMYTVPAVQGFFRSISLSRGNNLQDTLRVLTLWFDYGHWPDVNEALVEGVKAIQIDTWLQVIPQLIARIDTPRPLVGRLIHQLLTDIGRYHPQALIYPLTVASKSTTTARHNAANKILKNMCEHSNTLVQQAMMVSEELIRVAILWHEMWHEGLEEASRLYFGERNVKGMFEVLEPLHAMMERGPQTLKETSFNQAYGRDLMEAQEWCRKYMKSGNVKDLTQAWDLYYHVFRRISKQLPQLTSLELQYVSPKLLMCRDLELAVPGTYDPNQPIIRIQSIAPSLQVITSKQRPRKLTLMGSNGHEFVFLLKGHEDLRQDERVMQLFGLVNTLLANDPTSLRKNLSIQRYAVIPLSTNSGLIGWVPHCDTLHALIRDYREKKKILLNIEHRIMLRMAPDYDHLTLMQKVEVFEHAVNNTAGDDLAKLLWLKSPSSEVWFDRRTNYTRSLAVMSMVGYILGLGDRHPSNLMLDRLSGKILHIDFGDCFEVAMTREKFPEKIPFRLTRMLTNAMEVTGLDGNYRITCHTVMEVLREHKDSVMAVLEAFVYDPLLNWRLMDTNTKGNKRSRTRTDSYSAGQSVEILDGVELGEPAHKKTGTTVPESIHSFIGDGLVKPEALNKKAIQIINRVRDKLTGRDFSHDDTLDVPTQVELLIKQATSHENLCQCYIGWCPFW
Chain of PI3K-α (P42336 whole entry, species assumed): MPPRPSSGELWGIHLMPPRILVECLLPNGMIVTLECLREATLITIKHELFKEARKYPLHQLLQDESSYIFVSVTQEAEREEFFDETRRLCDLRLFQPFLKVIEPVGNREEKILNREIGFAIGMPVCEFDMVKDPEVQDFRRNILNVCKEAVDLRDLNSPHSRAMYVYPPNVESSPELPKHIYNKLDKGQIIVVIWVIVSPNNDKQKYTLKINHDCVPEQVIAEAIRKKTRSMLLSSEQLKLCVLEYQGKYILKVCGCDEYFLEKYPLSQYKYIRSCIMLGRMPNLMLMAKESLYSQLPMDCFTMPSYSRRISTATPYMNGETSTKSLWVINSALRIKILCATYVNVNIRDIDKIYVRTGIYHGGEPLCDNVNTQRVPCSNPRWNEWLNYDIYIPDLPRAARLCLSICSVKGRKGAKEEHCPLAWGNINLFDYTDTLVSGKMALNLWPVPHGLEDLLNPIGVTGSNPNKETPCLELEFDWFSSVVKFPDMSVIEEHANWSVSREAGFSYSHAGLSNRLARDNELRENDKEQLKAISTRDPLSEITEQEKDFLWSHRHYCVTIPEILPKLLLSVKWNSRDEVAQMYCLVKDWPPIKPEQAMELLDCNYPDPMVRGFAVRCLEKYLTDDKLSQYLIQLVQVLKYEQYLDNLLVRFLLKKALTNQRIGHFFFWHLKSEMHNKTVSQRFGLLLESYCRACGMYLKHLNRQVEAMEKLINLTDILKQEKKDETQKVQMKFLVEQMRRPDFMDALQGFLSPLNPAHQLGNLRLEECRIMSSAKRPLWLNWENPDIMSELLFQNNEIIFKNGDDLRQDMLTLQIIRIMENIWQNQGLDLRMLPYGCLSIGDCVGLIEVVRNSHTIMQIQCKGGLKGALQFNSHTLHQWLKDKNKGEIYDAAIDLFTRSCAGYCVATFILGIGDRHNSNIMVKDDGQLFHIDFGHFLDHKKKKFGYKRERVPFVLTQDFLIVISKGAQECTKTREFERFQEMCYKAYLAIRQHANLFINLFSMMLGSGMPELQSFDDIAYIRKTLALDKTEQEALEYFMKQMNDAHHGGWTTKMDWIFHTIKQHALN
Chain of PI3K-α (P27986 whole entry partner, species assumed): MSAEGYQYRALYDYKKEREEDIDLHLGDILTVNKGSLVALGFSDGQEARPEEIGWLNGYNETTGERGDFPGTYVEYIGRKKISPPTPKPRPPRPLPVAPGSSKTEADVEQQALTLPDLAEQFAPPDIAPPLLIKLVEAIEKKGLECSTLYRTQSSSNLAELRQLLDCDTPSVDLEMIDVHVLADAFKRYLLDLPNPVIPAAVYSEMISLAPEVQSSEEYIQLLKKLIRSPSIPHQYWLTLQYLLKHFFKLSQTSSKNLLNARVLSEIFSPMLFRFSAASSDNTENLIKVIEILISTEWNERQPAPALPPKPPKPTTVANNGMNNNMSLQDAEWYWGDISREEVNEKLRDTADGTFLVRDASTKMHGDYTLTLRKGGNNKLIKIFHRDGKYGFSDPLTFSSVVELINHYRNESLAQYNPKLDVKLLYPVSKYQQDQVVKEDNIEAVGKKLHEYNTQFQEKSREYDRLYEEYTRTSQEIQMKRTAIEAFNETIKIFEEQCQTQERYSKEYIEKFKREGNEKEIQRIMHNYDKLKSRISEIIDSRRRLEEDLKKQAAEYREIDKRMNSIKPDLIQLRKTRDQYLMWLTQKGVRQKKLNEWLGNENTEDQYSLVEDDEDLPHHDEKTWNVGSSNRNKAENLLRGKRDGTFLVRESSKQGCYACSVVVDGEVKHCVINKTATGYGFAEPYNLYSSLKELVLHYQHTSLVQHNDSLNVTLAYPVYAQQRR
Chain of PI3K-γ (P48736 whole entry, species assumed): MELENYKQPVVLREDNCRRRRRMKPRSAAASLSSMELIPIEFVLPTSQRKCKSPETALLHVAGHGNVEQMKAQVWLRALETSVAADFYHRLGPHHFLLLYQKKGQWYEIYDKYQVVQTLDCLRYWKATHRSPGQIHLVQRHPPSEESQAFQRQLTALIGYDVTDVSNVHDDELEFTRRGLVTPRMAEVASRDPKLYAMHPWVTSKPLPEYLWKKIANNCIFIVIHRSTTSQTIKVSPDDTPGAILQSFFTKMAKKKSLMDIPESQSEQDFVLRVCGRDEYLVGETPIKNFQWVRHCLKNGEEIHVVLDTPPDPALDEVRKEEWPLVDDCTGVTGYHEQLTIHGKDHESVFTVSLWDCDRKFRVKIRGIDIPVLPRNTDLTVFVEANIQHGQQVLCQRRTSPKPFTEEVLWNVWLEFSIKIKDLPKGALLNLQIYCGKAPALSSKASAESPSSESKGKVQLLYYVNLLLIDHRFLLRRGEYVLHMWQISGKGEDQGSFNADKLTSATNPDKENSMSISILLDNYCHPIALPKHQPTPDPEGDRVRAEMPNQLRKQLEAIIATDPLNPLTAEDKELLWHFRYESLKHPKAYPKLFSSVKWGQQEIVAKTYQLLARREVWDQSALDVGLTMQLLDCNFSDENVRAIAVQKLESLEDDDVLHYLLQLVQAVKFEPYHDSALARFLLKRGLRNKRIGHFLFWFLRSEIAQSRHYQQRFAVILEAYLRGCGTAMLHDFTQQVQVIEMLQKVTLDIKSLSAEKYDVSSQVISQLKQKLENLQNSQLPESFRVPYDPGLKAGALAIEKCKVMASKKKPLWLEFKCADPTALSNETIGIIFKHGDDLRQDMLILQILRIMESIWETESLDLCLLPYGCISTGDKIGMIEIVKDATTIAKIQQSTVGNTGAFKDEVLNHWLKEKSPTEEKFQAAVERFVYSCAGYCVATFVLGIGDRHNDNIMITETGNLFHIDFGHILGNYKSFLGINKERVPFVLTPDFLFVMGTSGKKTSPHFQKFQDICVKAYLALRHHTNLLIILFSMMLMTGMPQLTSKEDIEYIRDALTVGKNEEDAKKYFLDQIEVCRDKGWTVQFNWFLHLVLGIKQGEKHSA

For `CCc1nc(-c2ccc(NC(=O)Nc3ccc(N4CCC(N(C)C)CC4)cc3)cc2)nc(N2CCOCC2)n1` [Example 341, 1-{4-[4-(dimethylamino)piperidin-1-yl]phenyl}-3-[4-(4-ethyl-6-morpholin-4-yl-1,3,5-triazin-2-yl)phenyl]urea], the IC50 in assay [1] (PC3-mm2 cells) was 237 nM; in assay [1], 237 nM; at Human mTOR (FLAG-TOR), 12 nM and 15.5 nM; on PI3K-α it was 10 nM; on PI3K-α (listed as 529), 10.5 nM; in assay [2] (MDA-MB-361, 72 h), 150 nM. Besides, the IC50 on PI3K-γ was found to be 48 nM; at PI3K-γ (listed as 529), 48.5 nM.

As to `Cc1ccc(-c2nc(-c3ccc(NC(=O)Nc4ccc(C(=O)O)cc4)cc3)nc(N3CCOCC3)n2)cc1` [Example 342, 4-[({4-[4-(4-methylphenyl)-6-morpholin-4-yl-1,3,5-triazin-2-yl]phenyl}carbamoyl)amino]benzoic acid], the concentration for half-maximal inhibition (IC50) in assay [1] (PC3-mm2 cells) was 2430 nM; in assay [1] it was 2430 nM; at Human mTOR (FLAG-TOR), 6.6 nM and 9.3 nM; at PI3K-α, 20 nM; on PI3K-α (listed as 527), 20.5 nM; in assay [2] (setting [3]) it was 1260 nM. For the same molecule, the IC50 in assay [2] (MDA-MB-361, 72 h) stood at 1260 nM; on PI3K-γ, 127 nM.

For the molecule `CN(C)C1CCN(c2ccc(NC(=O)Nc3ccc(-c4nc(-c5ccccc5)nc(N5CCOCC5)n4)cc3)cc2)CC1` [Example 345, 1-{4-[4-(dimethylamino)piperidin-1-yl]phenyl}-3-[4-(4-morpholin-4-yl-6-phenyl-1,3,5-triazin-2-yl)phenyl]urea], the IC50 in assay [1] (PC3-mm2 cells) was 395 nM; in assay [1] it was 395 nM; at Human mTOR (FLAG-TOR), 80 nM and 81.5 nM; on PI3K-α, 43 nM; on PI3K-α (listed as 535), 43.5 nM; in assay [2] (MDA-MB-361, 72 h) it was 554 nM. Also, on PI3K-γ, the IC50 stood at 112 nM.

Consider `O=C(Nc1ccc(-c2nc(N3CCOCC3)nc(N3C4CCC3COC4)n2)cc1)Nc1ccc(Cl)nc1` [Example 349, 1-(6-chloropyridin-3-yl)-3-{4-[4-morpholin-4-yl-6-(3-oxa-8-azabicyclo[3.2.1]oct-8-yl)-1,3,5-triazin-2-yl]phenyl}urea], for which the IC50 was found to be 81 nM in assay [1] (PC3-mm2 cells); 81 nM in assay [1]; 2 nM on Human mTOR (FLAG-TOR); 59 nM at PI3K-α; 87 nM in assay [2] (MDA-MB-361, 72 h); 163 nM at PI3K-γ. Further, the IC50 at PI3K-γ (listed as 749) is 164 nM.

As for `CN(C)C1CCN(C(=O)c2ccc(NC(=O)Nc3ccc(-c4nc(C5CCOCC5)nc(N5CCOCC5)n4)cc3)cc2)CC1` [Example 350, 1-(4-{[4-(dimethylamino)piperidin-1-yl]carbonyl}phenyl)-3-{4-[4-morpholin-4-yl-6-(tetrahydro-2H-pyran-4-yl)-1,3,5-triazin-2-yl]phenyl}urea], the IC50 was 8.5 nM in assay [1] (PC3-mm2 cells); 8.5 nM in assay [1]; 0.89 nM at Human mTOR (FLAG-TOR); 1 nM on PI3K-α; 1.1 nM on PI3K-α (listed as 478); < 3.08 nM in assay [2] (setting [3]). In addition, the IC50 on PI3K-γ was 7 nM; on PI3K-γ (listed as 478) it was 6 nM; on PI3K-γ (listed as 510) it was 6.3 nM.

With `Nc1ccc(NC(=O)Nc2ccc(-c3nc(N4CCOCC4)nc(N4CCOCC4)n3)cc2)cc1` [Example 351, 1-(4-aminophenyl)-3-[4-(4,6-dimorpholin-4-yl-1,3,5-triazin-2-yl)phenyl]urea], the IC50 was 66 nM in assay [1] (PC3-mm2 cells); 66 nM in assay [1]; 4.2 nM and 4.6 nM at Human mTOR (FLAG-TOR); 3 nM at PI3K-α; 50 nM in assay [2] (setting [3]); 50 nM in assay [2] (MDA-MB-361, 72 h). Moreover, the results for the IC50 at PI3K-γ and at PI3K-γ (listed as 497) were 16 nM and 19 nM, respectively.

Regarding `CC(C)c1nc(-c2ccc(NC(=O)Nc3ccc(-c4cncnc4)cc3)cc2)nc(N2CCOCC2)n1` [Example 487, 1-{4-[4-(1-methylethyl)-6-morpholin-4-yl-1,3,5-triazin-2-yl]phenyl}-3-(4-pyrimidin-5-ylphenyl)urea], the IC50 in assay [1] (PC3-mm2 cells) came to 339 nM; at Human mTOR (FLAG-TOR), 1.8 nM; on PI3K-α, 32.3 nM; in assay [2] (72 h, MDA-MB-361 cells), 175 nM; at PI3K-γ, 27 nM.

As for `CC(C)c1nc(-c2ccc(NC(=O)Nc3ccc(C(=O)N4CCN(C(C)C)CC4)cc3)cc2)nc(N2CCOCC2)n1` [Example 491, 1-{4-[4-(1-methylethyl)-6-morpholin-4-yl-1,3,5-triazin-2-yl]phenyl}-3-(4-{[4-(1-methylethyl)piperazin-1-yl]carbonyl}phenyl)urea], the IC50 in assay [1] (PC3-mm2 cells) is 35 nM; at Human mTOR (FLAG-TOR) it was 1.1 nM; at PI3K-α, 3.5 nM; in assay [2] (setting [3]) it was 8 nM; on PI3K-γ, 17 nM.

Turning to `CC(C)(C)OC(=O)N1CC(Oc2nc(-c3ccc(NC(=O)Nc4ccncc4)cc3)nc(N3CCOCC3)n2)C1` [Example 494, tert-butyl 3-[(4-morpholin-4-yl-6-{4-[(pyridin-4-ylcarbamoyl)amino]phenyl}-1,3,5-triazin-2-yl)oxy]azetidine-1-carboxylate], the IC50 was 276 nM in assay [1] (PC3-mm2 cells); 4.2 nM at Human mTOR (FLAG-TOR); 16.5 nM at PI3K-α; 115 nM in assay [2] (72 h, MDA-MB-361 cells); 104 nM on PI3K-γ.

Turning to `CN1CCN(C(=O)Nc2ccc(NC(=O)Nc3ccc(-c4nc(N5CCOCC5)nc(N5CCOCC5)n4)cc3)cc2)CC1` [Example 498, N-[4-({[4-(4,6-dimorpholin-4-yl-1,3,5-triazin-2-yl)phenyl]carbamoyl}amino)phenyl]-4-methylpiperazine-1-carboxamide], the IC50 in assay [1] (PC3-mm2 cells) is 16.5 nM; at Human mTOR (FLAG-TOR), 2.35 nM; at PI3K-α, < 1.7 nM; in assay [2] (setting [3]), 4 nM; on PI3K-γ it was 2.5 nM.

Consider `CN(C)C1CCN(C(=O)Nc2ccc(NC(=O)Nc3ccc(-c4nc(N5CCOCC5)nc(N5CCOCC5)n4)cc3)cc2)CC1` [Example 499, 4-(dimethylamino)-N-[4-({[4-(4,6-dimorpholin-4-yl-1,3,5-triazin-2-yl)phenyl]carbamoyl}amino)phenyl]piperidine-1-carboxamide], for which the IC50 in assay [1] (PC3-mm2 cells) is 31 nM; at Human mTOR (FLAG-TOR) it was 2.2 nM; on PI3K-α it was < 1.9 nM; in assay [2] (setting [3]) it was 21 nM; on PI3K-γ, 4.5 nM.

With `O=C(NCCN1CCCCC1)Nc1ccc(NC(=O)Nc2ccc(-c3nc(N4CCOCC4)nc(N4CCOCC4)n3)cc2)cc1` [Example 501, 1-[4-(4,6-dimorpholin-4-yl-1,3,5-triazin-2-yl)phenyl]-3-(4-{[(2-piperidin-1-ylethyl)carbamoyl]amino}phenyl)urea], the IC50 in assay [1] (PC3-mm2 cells) is 41 nM; on Human mTOR (FLAG-TOR) it was 0.69 nM; on PI3K-α, < 1.75 nM; in assay [2] (72 h, MDA-MB-361 cells) it was < 31 nM; on PI3K-γ, 6.5 nM.

On to `CN1CCCN(C(=O)Nc2ccc(NC(=O)Nc3ccc(-c4nc(N5CCOCC5)nc(N5CCOCC5)n4)cc3)cc2)CC1` [Example 502, N-[4-({[4-(4,6-dimorpholin-4-yl-1,3,5-triazin-2-yl)phenyl]carbamoyl}amino)phenyl]-4-methyl-1,4-diazepane-1-carboxamide], for which the IC50 is 11 nM in assay [1] (PC3-mm2 cells); 1 nM at Human mTOR (FLAG-TOR); 0.5 nM on PI3K-α; 4 nM in assay [2] (72 h, MDA-MB-361 cells); 6 nM at PI3K-γ.

As for `CN(C)C(=O)Nc1ccc(NC(=O)Nc2ccc(-c3nc(N4CCOCC4)nc(N4CCOCC4)n3)cc2)cc1` [Example 504, 1-{4-[(dimethylcarbamoyl)amino]phenyl}-3-[4-(4,6-dimorpholin-4-yl-1,3,5-triazin-2-yl)phenyl]urea], the IC50 in assay [1] (PC3-mm2 cells) amounted to 25.5 nM; on Human mTOR (FLAG-TOR), 1.35 nM; at PI3K-α it was 1.8 nM; in assay [2] (setting [3]) it was 22.5 nM; on PI3K-γ it was 10 nM.

Regarding `CN1CCN(C(=O)c2ccc(NC(=O)Nc3ccc(-c4nc(C5CCOCC5)nc(N5CCOCC5)n4)cc3)cc2)CC1` [Example 511, 1-{4-[(4-methylpiperazin-1-yl)carbonyl]phenyl}-3-{4-[4-morpholin-4-yl-6-(tetrahydro-2H-pyran-4-yl)-1,3,5-triazin-2-yl]phenyl}urea], the IC50 in assay [1] (PC3-mm2 cells) was found to be 10 nM; at Human mTOR (FLAG-TOR) it was 0.52 nM; on PI3K-α it was 2.3 nM; in assay [2] (setting [3]), 2 nM; on PI3K-γ, 10.3 nM.

As for `CN(C)CCNC(=O)c1ccc(NC(=O)Nc2ccc(-c3nc(C4CCOCC4)nc(N4CCOCC4)n3)cc2)cc1` [Example 512, N-[2-(dimethylamino)ethyl]-4-[({4-[4-morpholin-4-yl-6-(tetrahydro-2H-pyran-4-yl)-1,3,5-triazin-2-yl]phenyl}carbamoyl)amino]benzamide], the IC50 is 8 nM in assay [1] (PC3-mm2 cells); 0.12 nM at Human mTOR (FLAG-TOR); < 1.9 nM at PI3K-α; 1 nM in assay [2] (72 h, MDA-MB-361 cells); 10 nM on PI3K-γ.

As for `O=C(Nc1ccc(C(=O)NCCN2CCCC2)cc1)Nc1ccc(-c2nc(C3CCOCC3)nc(N3CCOCC3)n2)cc1` [Example 513, 4-[({4-[4-morpholin-4-yl-6-(tetrahydro-2H-pyran-4-yl)-1,3,5-triazin-2-yl]phenyl}carbamoyl)amino]-N-(2-pyrrolidin-1-ylethyl)benzamide], the IC50 in assay [1] (PC3-mm2 cells) is 13 nM; at Human mTOR (FLAG-TOR), 0.12 nM; on PI3K-α, < 2.4 nM; in assay [2] (72 h, MDA-MB-361 cells) it was 2 nM; on PI3K-γ it was 12 nM.

These data come from US20090304692A1, “TRIAZINE COMPOUNDS AS PI3 KINASE AND MTOR INHIBITORS” (Wyeth, priority 2008, published 2009).
